Holding throughout (conditions): receptor binding, SPA
Assay [1] concerns the target T1, PPARα (Homo sapiens, UniProt Q07869).
T1 construct: PPARα (aa 167 to 469); made in house; host or cells: E. coli BL21(pLysS)
T1 sequence (Q07869 167-468 limits assumed): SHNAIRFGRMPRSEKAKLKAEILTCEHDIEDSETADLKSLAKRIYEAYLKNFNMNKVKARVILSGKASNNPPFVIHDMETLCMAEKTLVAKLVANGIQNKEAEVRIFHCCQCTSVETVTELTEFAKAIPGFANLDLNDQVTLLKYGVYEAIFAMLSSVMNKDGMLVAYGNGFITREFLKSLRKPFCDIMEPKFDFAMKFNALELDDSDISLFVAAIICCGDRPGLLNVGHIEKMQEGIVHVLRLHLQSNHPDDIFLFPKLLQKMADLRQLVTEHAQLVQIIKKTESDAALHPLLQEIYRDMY
In words: PPARα radioligand binding assay (scintillation proximity, GST-PPARα-LBD). The source says:
(§1) Background information on the performed assays can be found in: Nichols J S et al. “Development of a scintillation proximity assay for peroxisome proliferator-activated receptor gamma ligand binding domain”, (1998) Anal. Biochem. 257: 112-119.
(§2) Full-length cDNA clones for humans PPARδ and PPARα and mouse PPARγ were obtained by RT-PCR from human adipose and mouse liver cRNA, respectively, cloned into plasmid vectors and verified by DNA sequencing. Bacterial and mammalian expression vectors were constructed to produce glutathione-s-transferase (GST) and Gal4 DNA binding domain proteins fused to the ligand binding domains (LBD) of PPARδ (aa 139 to 442), PPARγ (aa 174 to 476) and PPARα (aa 167 to 469). To accomplish this, the portions of the cloned sequences encoding the LBDs were amplified from the full-length clones by PCR and then subcloned into the plasmid vectors. Final clones were verified by DNA sequence analysis. […]
PPARα receptor binding was assayed in TKE50 (50 mM Tris-HCl, pH 8, 50 mM KCl, 2 mM EDTA, 0.1 mg/ml fatty acid-free BSA and 10 mM DTT). […] All binding assays were performed in 96 well plates and the amount of bound ligand measured on a Packard TopCount using OptiPlates (Packard). Nonspecific binding was determined in the presence of 10^−4 M unlabelled compound. […]
A general note: In a scintillation proximity assay essentially only radioactivity close to the scintillant gives light.

The target of assay [2] is T2, PPARγ (Mus musculus, UniProt P37238).
T2 construct: PPARγ (aa 174 to 476); made in house; host or cells: E. coli BL21(pLysS)
T2 sequence (P37238 204-505): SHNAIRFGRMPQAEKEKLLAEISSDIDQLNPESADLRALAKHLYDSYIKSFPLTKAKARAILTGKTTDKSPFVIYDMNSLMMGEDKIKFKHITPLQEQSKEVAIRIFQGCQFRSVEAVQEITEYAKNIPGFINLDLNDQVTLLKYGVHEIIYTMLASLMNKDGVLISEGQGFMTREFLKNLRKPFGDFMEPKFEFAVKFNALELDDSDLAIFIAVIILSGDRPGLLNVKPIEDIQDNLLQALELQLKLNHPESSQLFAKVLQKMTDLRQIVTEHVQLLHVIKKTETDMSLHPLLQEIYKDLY
In words: PPARγ radioligand binding assay (scintillation proximity, GST-PPARγ-LBD).
Text: as §1, §2
PPARγ receptor binding was assayed in TKE50 (50 mM Tris-HCl, pH 8, 50 mM KCl, 2 mM EDTA, 0.1 mg/ml fatty acid-free BSA and 10 mM DTT). […] All binding assays were performed in 96 well plates and the amount of bound ligand measured on a Packard TopCount using OptiPlates (Packard). Nonspecific binding was determined in the presence of 10^−4 M unlabelled compound. […]

The target of assay [3] is T3, PPARδ (Homo sapiens, UniProt Q03181).
T3 construct: PPARδ (aa 139 to 442); made in house; host or cells: E. coli BL21(pLysS)
T3 sequence (Q03181 139-441 limits assumed): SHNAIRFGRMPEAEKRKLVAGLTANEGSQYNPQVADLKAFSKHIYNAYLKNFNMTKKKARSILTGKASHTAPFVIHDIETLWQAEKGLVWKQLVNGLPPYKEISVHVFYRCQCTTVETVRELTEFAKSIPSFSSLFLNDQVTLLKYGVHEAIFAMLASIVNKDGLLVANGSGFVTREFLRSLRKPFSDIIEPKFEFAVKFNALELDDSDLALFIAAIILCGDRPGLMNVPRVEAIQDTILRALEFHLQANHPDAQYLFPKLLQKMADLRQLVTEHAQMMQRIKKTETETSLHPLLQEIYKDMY
In words: PPARδ radioligand binding assay (scintillation proximity, GST-PPARδ-LBD).
Text: as §1, §2
PPARδ receptor binding was assayed in HNM10 (50 mM Hepes, pH 7.4, 10 mM NaCl, 5 mM MgCl2, 0.15 mg/ml fatty acid-free BSA and 15 mM DTT). […] Radioligand was added and the reaction incubated at RT for 1 h and scintillation proximity counting performed in the presence of test compounds was determined. All binding assays were performed in 96 well plates and the amount of bound ligand was measured on a Packard TopCount using OptiPlates (Packard). […]

Data on 2 molecules can be found in US7405236B2, “Indole derivatives comprising an acetylene group” (Hoffman-La Roche Inc., priority 2004, dated 2008).

What is called IC50 is the midpoint of a concentration-inhibition curve. A higher IC50 goes with weaker potency.

Regarding `O=C(O)Cn1ccc2ccc(OCCCC#Cc3cccc(OC(F)(F)F)c3)cc21` [Example 2, {6-[5-(3-Trifluoromethoxy-phenyl)-pent-4-ynyloxy]-indol-1-yl}-acetic acid], the concentration for half-maximal inhibition (IC50) is 317 nM in assay [1], above 10000 nM in assay [2] and 149 nM in assay [3].

For the molecule `O=C(O)Cn1ccc2cc(OCCCC#Cc3ccc(OC(F)(F)F)cc3)ccc21` [Example 6, {5-[5-(4-Trifluoromethoxy-phenyl)-pent-4-ynyloxy]-indol-1-yl}-acetic acid], the 50% inhibitory concentration (IC50) is 74 nM in assay [1], above 10000 nM in assay [2] and 301 nM in assay [3].
